Source: patent US5837868A, “Process for preparation of chiral 3-amino-pyrrolidine and analogous bicyclic compounds” (Abbott Laboratories, priority 1997, dated 1998)

Experiments:
Pseudomonas cepacia 296I = test: In vitro antibacterial activity, agar dilution MIC; format: cell-based; conditions: Pseudomonas cepacia 296I; BHI agar dilution, 20-24 hours
Experimental: (§1) Each plate was inoculated with 1:100 (or 1:10 for slow-growing strains, primarily Micrococcus and Streptococcus) dilutions of up to 32 different microorganisms, using a Steers replicator block calibrated to deliver approximately 10^4 colony forming units (CFUs). The inoculated plates were incubated at from about 35° C. to about 37° C. for approximately 20-24 hours. In addition, a control plate using BHI agar containing no test compound was prepared and incubated at the beginning and at the end of each test. The quinolone antibacterial ciprofloxacin was used as a control ("Cntl").
(§2) The MIC was defined as the lowest concentration of test compound yielding no growth (a slight haze or sparsely isolated colonies at the inoculum spot) as compared to the growth control containing no test compound.

Candida albicans CCH 442 = test: In vitro antibacterial activity, agar dilution MIC; conditions: Candida albicans CCH 442; BHI agar dilution, 20-24 hours
Experimental: as §1, §2

Escherichia coli Juhl = test: In vitro antibacterial activity, agar dilution MIC; format: cell-based; conditions: Escherichia coli Juhl; BHI agar dilution, 20-24 hours
Experimental: as §1, §2

Staph. aureus A5177 = test: In vitro antibacterial activity, agar dilution MIC; format: cell-based; conditions: Staph. aureus A5177; BHI agar dilution, 20-24 hours
Experimental: as §1, §2

Staph. aureus 5278 = test: In vitro antibacterial activity, agar dilution MIC; format: cell-based; conditions: Staph. aureus 5278; BHI agar dilution, 20-24 hours
Experimental: as §1, §2

[1] = tested on: Providencia stuartii CMX 640; test: In vitro antibacterial activity, agar dilution MIC; format: cell-based; conditions: Providencia stuartii CMX 640; BHI agar dilution, 20-24 hours
Experimental: as §1, §2

E. coli KNK 437 = test: In vitro antibacterial activity, agar dilution MIC; format: cell-based; conditions: E. coli KNK 437; BHI agar dilution, 20-24 hours
Experimental: as §1, §2

[2] = tested on: Klebs. pneumoniae ATCC 8045; test: In vitro antibacterial activity, agar dilution MIC; format: cell-based; conditions: Klebs. pneumoniae ATCC 8045; BHI agar dilution, 20-24 hours
Experimental: as §1, §2

Strep. pyogenes EES61 = test: In vitro antibacterial activity, agar dilution MIC; format: cell-based; conditions: Strep. pyogenes EES61; BHI agar dilution, 20-24 hours
Experimental: as §1, §2

[3] = tested on: Enter. aerogenes ATCC 13048; test: In vitro antibacterial activity, agar dilution MIC; format: cell-based; conditions: Enter. aerogenes ATCC 13048; BHI agar dilution, 20-24 hours
Experimental: as §1, §2

E. coli DC-2 = test: In vitro antibacterial activity, agar dilution MIC; format: cell-based; conditions: E. coli DC-2; BHI agar dilution, 20-24 hours
Experimental: as §1, §2

Myco. smegmatis ATCC 114 = test: In vitro antibacterial activity, agar dilution MIC; format: cell-based; conditions: Myco. smegmatis ATCC 114; BHI agar dilution, 20-24 hours
Experimental: as §1, §2

P. aeruginosa 5263 = conditions: BHI agar dilution, 20-24 hours
Experimental: as §1, §2

[4] = tested on: Entero. faecium ATCC 8043; test: In vitro antibacterial activity, agar dilution MIC; format: cell-based; conditions: Entero. faecium ATCC 8043; BHI agar dilution, 20-24 hours
Experimental: as §1, §2

E. coli H560 = test: In vitro antibacterial activity, agar dilution MIC; format: cell-based; conditions: E. coli H560; BHI agar dilution, 20-24 hours
Experimental: as §1, §2

P. aeruginosa K799/61 = test: In vitro antibacterial activity, agar dilution MIC; format: cell-based; conditions: P. aeruginosa K799/61; BHI agar dilution, 20-24 hours
Experimental: as §1, §2

[5] = tested on: Strep. pyogenes 930 CONST; test: In vitro antibacterial activity, agar dilution MIC; format: cell-based; conditions: Strep. pyogenes 930 CONST; BHI agar dilution, 20-24 hours
Experimental: as §1, §2

Strep. bovis A5169 = test: In vitro antibacterial activity, agar dilution MIC; format: cell-based; conditions: Strep. bovis A5169; BHI agar dilution, 20-24 hours
Experimental: as §1, §2

Staph. aureus 642A = test: In vitro antibacterial activity, agar dilution MIC; format: cell-based; conditions: Staph. aureus 642A; BHI agar dilution, 20-24 hours
Experimental: as §1, §2

[6] = tested on: Acinetob. calcoaceticus CMX 669; test: In vitro antibacterial activity, agar dilution MIC; format: cell-based; conditions: Acinetob. calcoaceticus CMX 669; BHI agar dilution, 20-24 hours
Experimental: as §1, §2

[7] = tested on: Staph. aureus 1775 Cipro. R.; test: In vitro antibacterial activity, agar dilution MIC; format: cell-based; conditions: Staph. aureus 1775 Cipro. R.; BHI agar dilution, 20-24 hours
Experimental: as §1, §2

P. aeruginosa K799/WT = test: In vitro antibacterial activity, agar dilution MIC; format: cell-based; conditions: P. aeruginosa K799/WT; BHI agar dilution, 20-24 hours
Experimental: as §1, §2

P. aeruginosa BMH 10 = test: In vitro antibacterial activity, agar dilution MIC; format: cell-based; conditions: P. aeruginosa BMH 10; BHI agar dilution, 20-24 hours
Experimental: as §1, §2

[8] = tested on: Nocardia asteroides ATCC 9970; test: In vitro antibacterial activity, agar dilution MIC; format: cell-based; conditions: Nocardia asteroides ATCC 9970; BHI agar dilution, 20-24 hours
Experimental: as §1, §2

[9] = tested on: Strep. pyogenes 2548 INDUC; test: microbe, parasite or virus in culture; format: cell-based; conditions: Strep. pyogenes 2548 INDUC; BHI agar dilution, 20-24 hours
Experimental: as §1, §2

P. aeruginosa A5007 = test: In vitro antibacterial activity, agar dilution MIC; format: cell-based; conditions: P. aeruginosa A5007; BHI agar dilution, 20-24 hours
Experimental: as §1, §2

E. coli SS = test: In vitro antibacterial activity, agar dilution MIC; format: cell-based; conditions: E. coli SS; BHI agar dilution, 20-24 hours
Experimental: as §1, §2

Staph. aureus ATCC 6538P = test: In vitro antibacterial activity, agar dilution MIC; format: cell-based; conditions: Staph. aureus ATCC 6538P; BHI agar dilution, 20-24 hours
Experimental: as §1, §2

P. aeruginosa 2862 = test: In vitro antibacterial activity, agar dilution MIC; format: cell-based; conditions: P. aeruginosa 2862; BHI agar dilution, 20-24 hours
Experimental: as §1, §2

M. luteus ATCC 9341 = test: In vitro antibacterial activity, agar dilution MIC; format: cell-based; conditions: M. luteus ATCC 9341; BHI agar dilution, 20-24 hours
Experimental: as §1, §2

M. luteus ATCC 4698 = test: In vitro antibacterial activity, agar dilution MIC; format: cell-based; conditions: M. luteus ATCC 4698; BHI agar dilution, 20-24 hours
Experimental: as §1, §2

[10] = tested on: Strep. agalactiae CMX 508; test: In vitro antibacterial activity, agar dilution MIC; format: cell-based; conditions: Strep. agalactiae CMX 508; BHI agar dilution, 20-24 hours
Experimental: as §1, §2

Staph. aureus CMX 553 = test: In vitro antibacterial activity, agar dilution MIC; format: cell-based; conditions: Staph. aureus CMX 553; BHI agar dilution, 20-24 hours
Experimental: as §1, §2

Staph. epidermidis 3519 = test: In vitro antibacterial activity, agar dilution MIC; format: cell-based; conditions: Staph. epidermidis 3519; BHI agar dilution, 20-24 hours
Experimental: as §1, §2

## CC[C@@H]1CN(c2c(F)cn3c(=O)c(C(=O)O)cc(C4CC4)c3c2C)C[C@H]1N.Cl (single isomer, unassigned; diastereomer a) [Ex. 2, 8-(trans-3-amino-4-ethylpyrrolidin-1-yl)-1-cyclopropyl-7-fluoro-4H-9-methyl-4-oxo-quinolizine-3-carboxylic acid hydrochloride diastereomer A]
Pseudomonas cepacia 296I
  MIC: 1.56 µg/mL
Candida albicans CCH 442
  MIC: > 100 µg/mL
Escherichia coli Juhl
  MIC: 0.01 µg/mL
Staph. aureus A5177
  MIC: 0.02 µg/mL
Staph. aureus 5278
  MIC: 0.05 µg/mL
[1]
  MIC: 0.39 µg/mL
E. coli KNK 437
  MIC: 0.1 µg/mL
[2]
  MIC: 0.05 µg/mL
Strep. pyogenes EES61
  MIC: 0.02 µg/mL
[3]
  MIC: 0.1 µg/mL
E. coli DC-2
  MIC: 0.1 µg/mL
Myco. smegmatis ATCC 114
  MIC: 0.02 µg/mL
P. aeruginosa 5263
  MIC: 3.1 µg/mL
[4]
  MIC: 0.05 µg/mL
E. coli H560
  MIC: 0.01 µg/mL
P. aeruginosa K799/61
  MIC: 0.1 µg/mL
[5]
  MIC: 0.05 µg/mL
Strep. bovis A5169
  MIC: 0.1 µg/mL
Staph. aureus 642A
  MIC: 0.02 µg/mL
[6]
  MIC: 0.05 µg/mL
[7]
  MIC: 0.78 µg/mL
P. aeruginosa K799/WT
  MIC: 0.78 µg/mL
P. aeruginosa BMH 10
  MIC: 0.2 µg/mL
[8]
  MIC: 0.78 µg/mL
[9]
  MIC: 0.05 µg/mL
P. aeruginosa A5007
  MIC: 0.39 µg/mL
E. coli SS
  MIC: 1 ng/mL
Staph. aureus ATCC 6538P
  MIC: 0.02 µg/mL
P. aeruginosa 2862
  MIC: 6.2 µg/mL
M. luteus ATCC 9341
  MIC: 0.05 µg/mL
M. luteus ATCC 4698
  MIC: 0.05 µg/mL
[10]
  MIC: 0.02 µg/mL
Staph. aureus CMX 553
  MIC: 0.02 µg/mL
Staph. epidermidis 3519
  MIC: 0.05 µg/mL
